# Laboratory results as given in US12397518B2, “WS12-releasing contact lens” (CooperVision International Limited, priority 2021, dated 2025).
# Assays:
# [1] = target: transient receptor potential melastatin-8 (TRPM8) ion channels (Homo sapiens, UniProt Q7Z2W7); conditions: background statement; cited from earlier work
# [2] = WS12 leaching into PBS packaging solution during autoclave (HPLC); type: physicochemical; conditions: standard contact lens sterilization and storage conditions
# Description: Silicone hydrogel contact lenses were prepared by curing the formulation for stenfilcon A in contact lens molds. The cured stenfilcon A was removed from the molds and extracted by immersing them for 215 minutes in ethanol (EtOH) containing WS12 (Tocris Bioscience) in the loading concentrations shown in Table I. The lenses were removed from the EtOH and washed in DI water for approximately 6 minutes, followed by two exchanges of DI water for approximately 30 minutes each. The lenses were transferred to 6 mL glass vials containing 3 mL phosphate buffered saline at pH 7.5 (0.78 wt. % NaCl, 0.05 wt. % sodium phosphate monobasic, and 0.36 wt. % sodium phosphate dibasic), referred to herein as PBS. The vials were sealed and autoclaved.
# Each autoclaved lens was transferred to a vial containing 3 ml EtOH and stored overnight on a 150 rpm shaker at room temperature to extract WS12 from the lens. The EtOH extracts and the PBS in which the lenses were autoclaved were submitted for analysis by HPLC (detection wavelength=250 nm) against calibration standards to determine the average amount of WS12 loaded into each (n=5) and whether the WS12 leaches from the lens during autoclave.
# Chain of transient receptor potential melastatin-8 (TRPM8) ion channels (Q7Z2W7 whole entry, species assumed): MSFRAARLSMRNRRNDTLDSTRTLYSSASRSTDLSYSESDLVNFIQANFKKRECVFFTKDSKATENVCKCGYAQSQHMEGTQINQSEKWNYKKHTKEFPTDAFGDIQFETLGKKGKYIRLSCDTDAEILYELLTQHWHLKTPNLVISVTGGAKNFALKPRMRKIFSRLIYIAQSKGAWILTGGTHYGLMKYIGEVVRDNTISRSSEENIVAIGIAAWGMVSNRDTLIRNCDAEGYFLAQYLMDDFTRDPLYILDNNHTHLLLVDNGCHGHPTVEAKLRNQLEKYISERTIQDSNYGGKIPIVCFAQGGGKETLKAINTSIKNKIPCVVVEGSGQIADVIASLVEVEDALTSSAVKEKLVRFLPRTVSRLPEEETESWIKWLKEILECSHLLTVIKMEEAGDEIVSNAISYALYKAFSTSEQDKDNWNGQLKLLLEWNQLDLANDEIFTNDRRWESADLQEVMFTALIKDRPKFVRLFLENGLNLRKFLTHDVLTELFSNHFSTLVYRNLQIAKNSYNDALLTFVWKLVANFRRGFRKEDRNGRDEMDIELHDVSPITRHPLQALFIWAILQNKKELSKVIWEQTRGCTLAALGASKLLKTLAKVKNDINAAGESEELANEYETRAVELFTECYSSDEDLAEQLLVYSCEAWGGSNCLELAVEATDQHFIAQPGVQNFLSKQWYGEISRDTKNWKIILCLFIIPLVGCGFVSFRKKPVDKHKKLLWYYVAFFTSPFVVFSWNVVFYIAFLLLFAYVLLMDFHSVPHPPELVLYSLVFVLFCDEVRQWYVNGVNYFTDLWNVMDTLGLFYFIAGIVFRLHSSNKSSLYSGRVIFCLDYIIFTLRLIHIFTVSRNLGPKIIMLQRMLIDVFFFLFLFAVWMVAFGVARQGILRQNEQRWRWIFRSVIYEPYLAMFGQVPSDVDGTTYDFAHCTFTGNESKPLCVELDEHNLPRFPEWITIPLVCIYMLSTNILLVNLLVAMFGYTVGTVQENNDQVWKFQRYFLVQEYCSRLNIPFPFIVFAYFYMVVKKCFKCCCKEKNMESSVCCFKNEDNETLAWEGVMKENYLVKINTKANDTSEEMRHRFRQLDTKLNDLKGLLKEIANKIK
smiles,measurement,setting,value
"COc1ccc(NC(=O)C2CC(C)CCC2C(C)C)cc1 (centres unmarked) [WS12, N-(4-Methoxyphenyl)-5-methyl-2-(1-methylethyl)cyclohexanecarboxamide]",activation of TRPM8 ion channels,[1],selectively activates
same,stability of WS12 in hydrogel contact lens material,[2],without degradation or leaching
